Assays:
liver NKT cells = assay: In vivo activation of NKT cells by transfer of sphingolipid-pulsed BMDCs; design: species or system C57BL/6 mice; conditions: without re-stimulation; BMDCs pulsed with α-GalCerBf
Experimental: FIGS. 7A-7F illustrate that α-GalCerBf activates NKT cells in vivo. Bone marrow-derived dendritic cells (BMDCs) were pulsed in vitro with LPS only or LPS+α-GalCerBf for 24 hr. Then 0.4×10^6 cells were treated with control Ig or anti-CD1d blocking antibody and then transferred to WT mice. Liver mononuclear cells were analyzed 16-18 hr later. Data shown were pooled from three independent experiments. FIGS. 7A-7C: Expression of CD25 and CD69 on gated CD3^+tetramer^+ cells. Representative flow cytometry plots and pooled data showing fold change of CD25 and CD69 surface expression compared to NKT cells isolated from mice transferred with LPS-pulsed BMDCs. FIGS. 7D and 7E provide representative flow cytometry plots and pooled data, respectively, of intracellular IFN-γ expression on gated CD3^+ tetramer^+ cells. FIG. 7F presents serum IFN-γ levels. […]
Mice were sacrificed 16-18 hr after transfer of 0.4×10^6 mature CD86^hiMHCII^hi BMDCs. […] All isolations were performed in the presence of brefeldin A. After cell surface staining, cells were fixed in Cytofix/Cytoperm (BD Biosciences) according to the manufacturer's instructions and stained for intracellular cytokines Serum IFN-γ was measured by ELISA. […]
As described herein, because α-GalCerBf is an agonist of NKT cell hybridomas and freshly isolated NKT cells in culture, the capability of α-GalCerBf to activate NKT cells in vivo was determined. […]

[1] = tested on: cyclophosphamide (CY) induced diabetes; assay: Cyclophosphamide-induced diabetes mouse model; format: in vivo, NOD mice; conditions: 25 μg intraperitoneally on days 0, 2, 4, 6, 8; diabetic = blood glucose above 250 mg/dL; 100% of DMSO controls diabetic
Experimental: FIG. 8 presents a graph illustrating the percent of animals that developed diabetes in a cyclophosphamide-induced diabetes mouse model. Groups of animals received DMSO only, α-GalCerBf, or KRN7000. Number of animals is represented by n. Mice were considered diabetic when blood glucose was above 250 mg/dL. Blood glucose levels were measured at the time point shown. Data are representative of three independent experiments. KRN7000 prevents cyclophosphamide (CY) induced diabetes in a Non-Obese Diabetic (NOD) mouse model (see, e.g., Sharif et al., Nat. Med. 7:1057-62 (2001)). Prevention of diabetes in this model is believed to be associated with suppression of T and B cell responses to islet antigens as well as a polarization towards TH2-like responses (see Sharif, supra). This example describes the effect of α-GalCerBf in the CY induced diabetes mouse model. Groups of twelve-week old NOD female mice were given 300 mg/kg cyclophosphamide intraperitoneally on day 0. Groups of mice received DMSO (n=4), or 25 μg α-GalCerBf (n=7) or 5 μg KRN7000 (n=3) diluted in DMSO intraperitoneally on days 0, 2, 4, 6, and 8. Diabetes progression was monitored by measuring blood glucose at each time point (see FIG. 8). […] Kaplan-Meier survival curves were determined by a log-rank test using Prism software.

[2] = tested on: Peripheral blood mononuclear cells (PBMCs), CD3+Vα24+ NKT cells; assay: In vitro expansion of CD3+Vα24+ NKT cells from human PBMCs; format: cell-based; conditions: 13 days; 0.1 μg/ml KRN7000, 1 μg/ml α-GalCerBf, 1 μg/ml ceramideBf
Experimental: FIGS. 6A and 6B illustrate that α-GalCerBf binds human CD1d and activates human NKT cells in vitro. FIG. 6A: PBMCs were cultured for 13 days with 0.1 μg/mlKRN7000, 1 μg/ml α-GalCerBf, or 1 μg/ml ceramideBf. Dot plots show CD3^+Vα24^+NKT cells pre- and post-expansion. The data shown are representative of at least two individual experiments performed with six individual donors. FIG. 6B: Human NKT cells were purified after two rounds of expansion with 1 μg/ml α-GalCerBf and restimulated with 10 μg/ml α-GalCerBf in the presence or absence of control Ig or anti-Cd1d blocking antibodies. IFN-γ secretion was measured in supernatants 40-48 hours later. Data are representative of two independent experiments.
The capability of α-GalCerBf to stimulate freshly isolated NKT cells was determined. A first experiment was performed to determine whether Vα24^+ cells could be expanded in vitro with α-GalCerBf as previously described for KRN7000 (see, e.g., Rogers et al., J. Immunol. Meth. 285:197-214 (2004)). Peripheral blood mononuclear cells (PBMCs) were cultured with 0.1 μg/ml KRN7000, 1 μg/ml α-GalCerBf, or 1 μg/ml ceramideBf for 13 days. The presence of CD3 Vα24^+ cells was then assessed by flow cytometry. At least two individual experiments performed with six individual donors. […] IFN-γ secretion was measured in supernatants 40-48 hours later.

Structure (SMILES)	Liver NKT cells expressing IFN-γ (liver NKT cells) [%]	Mice in which diabetes development was prevented [1]	Expansion of a population of CD3+Vα24+ cells [2]
CC(C)CCCCCCCCCCC[C@@H](O)CC(=O)N[C@@H](CO[C@H]1OC(CO)[C@H](O)[C@H](O)C1O)[C@H](O)CCCCCCCCCCCC(C)C (stereo partly drawn) [α-GalCerBf]	15	more than 40%	
CC(C)CCCCCCCCCCC[C@@H](O)CC(=O)N[C@@H](CO)[C@H](O)CCCCCCCCCCCC(C)C [ceramideBf]			did not show an expansion

Source: patent publication US10227290B2, “Glycosphingolipids for use in modulating immune responses” (The Regents of the University of California, priority 2012, dated 2019)
